Series [1] deals with Wnt/β-catenin signaling pathway. Briefly: Topflash/Fopflash luciferase report assay in HCT116 cells. In kind it is cell-based, human. The following applies: 30 μM. The text has this:
(§1) We synthesized derivatives 5–10 bearing 5-membered and 6-membered heterocyclic rings at the position 3′ or 4′ of the B phenyl ring. […] SW480 cells show higher Wnt activation compared to HCT116 cells.[28] […] In SW480 cells, compounds 5–10 were in the 1.75%(10)–7.32%(7) range of residual luciferase activity, except 6(28.46%), compared to 3(21.61%); in HCT116 cells, compounds 5–10 were in the 0.37%(7)–5.88%(5) range, compared to 3 (18.75%) (Table 1 and Figure 5).
(§2) Figure 5 Residual luciferase activity (%) by compounds 5–10 and reference compound 3 in SW480 cells (left panel) and HCT116 cells (right panel). Data are represented as the mean ± SD of three independent experiments, each performed in triplicate.
(§3) Briefly, the Topflash plasmid (Beyotime, Zhejiang, China) contains 7 TCF/LEF binding sites, while the Fopflash plasmid (Beyotime, Zhejiang, China) contains 6 mutated TCF/LEF binding sites, which are located in the upstream of the luciferase reporter. SW480 and HCT116 cell lines were cultured in 90% DMEM (HyClone, #SH30243.01) plus 10% fetal bovine serum (Gibco, #10270) and plasmocin (mpp-39-03, InvivoGen), respectively. The Topflash/Fopflash vector and plasmid pTK-renilla together were co-transfected to the cells. […] The Dual-Glo luciferase assay kit (Promega, #E1910) was used to measure the luminescence intensity (Figure 2).

Series [2] has as its system HCC1806 cells. Briefly: Cell proliferation by live-cell imaging (IncuCyte), HCC1806 TNBC cells. Type of series: cell-based. The settings on record: 40 μM, 72 h. The method, then:
(§4) As TNBC is a highly heterogeneous subgroup, including breast cancers with different molecular and phenotypic traits,[37] effects of compounds 5–10 on cell proliferation were also tested in additional TNBC cell lines, i.e., HCC1806 and HCC1937. As inhibitors of HCC1806 TNBC cells, compounds 5–10 were evaluated in parallel with compounds 3, ICG-001, and iCRT3 (Figures 10 and S12–S19, Supporting Information); as inhibitors of the HCC1937 TNBC cells, 5–10 were compared with 3 and iCRT3 (Figures 10, S20, and S21). Effects on cell proliferation were evaluated as above for the MDA-MB-231 TNBC cells at the latest time point of observation of 72 h.
(§5) Figure 10 Inhibition of MDA-MB-231, HCC1806, and HCC1937 TNBC cell growth by compounds 5–10 and reference compounds 3, […], and iCRT3 at 40 μM. Cell growth inhibition was quantified using the IncuCyte cell-by-cell analysis software, by comparison with the growth of DMSO-treated cells at 72 h, set at 100% (mean ± SD, n = 3, one-way ANOVA, **p ≤ 0.01, ****p ≤ 0.0001).
(§6) Cell proliferation of breast cancer cell lines upon continuous treatment with select compounds was evaluated by the real-time quantitative live-cell imaging system. MDA-MB-231 (1500 cells/well), HCC1806 (2000 cells/well), and HCC1937 (3000 cells/well) were seeded in 96-well plates, treated with increasing doses of selected compounds and images (5 images/well) were acquired every 8 h for 3 days at 10× magnification in an IncuCyte SX5 live-content imaging system (Essen Bioscience) at 37 °C with 5% CO2. Images were analyzed using IncuCyte cell-by-cell analysis software to detect and quantify live cells (phase-contrast). The number of cells at each time point was quantified using IncuCyte cell-by-cell analysis software, and cell growth was evaluated as the normalized ratio between counted cells at each time point normalized to those counted at time 0. Graph drawing and statistical analyses were performed in GraphPad Prism according to the statistical tests described in the figure legends.

Series [3] has as its system HCC1937 cells. Briefly: Cell proliferation by live-cell imaging (IncuCyte), HCC1937 TNBC cells. Type of series: cell-based. The settings on record: 40 μM, 72 h. Here is the method:
as §4, §5, §6

The test system of series [4] is Wnt/β-catenin signaling pathway. Briefly: Topflash/Fopflash luciferase report assay in SW480 cells. In kind it is cell-based. The settings on record: 30 μM.
Source text: as §1, §2, §3

In series [5] the test system is MDA-MB-231 cells. Put plainly: Cell proliferation by live-cell imaging (IncuCyte), MDA-MB-231 TNBC cells. In kind it is cell-based. The following applies: for effect on MDA-MB-231 cell proliferation: 40 μM, 48 and 72 h.
Source text: TNBC represents approximately 10–15% of all breast cancers and is the most aggressive subtype of breast cancer. Patients with TNBC have a poor outcome compared to the other subtypes of breast cancer. In the breast cancer tissue, β-catenin is overexpressed compared to the normal tissue. The overexpression of β-catenin is associated with TNBC and lymph node metastasis. […] There is a quest for the development of new therapies to treat TNBC. […] Effects on cell proliferation of MDA-MB-231 TNBC cells were evaluated by live-time cell imaging using the Incucyte S5 system.
as §5, §6

In series [6] the test system is Fgf20 and Sal4. Put plainly: Wnt-target gene mRNA levels (qPCR) in LiCl-treated HCT116 cells. Type of series: cell-based, human. The following applies: HCT116, LiCl 50 mM, 24 h, 10 μM. Here is the method: (§7) To this end, HCT116 cells were treated for 24 h with 50 mM LiCl and increasing concentrations (10–50–100 μM) of the two compounds.
HCT116 was treated with LiCl (50 mM) and 10 μM compound 9 or 10 for 24 h. Fgf20, Sall4 (Wnt-target genes) mRNA levels were measured by qPCR and normalized to the expression of β-actin mRNA. Results are expressed as fold change relative to the control sample and represent the mean ± SD of three independent experiments, each performed in triplicate. *p < 0.05, **p < 0.01, ***p < 0.001 as determined by ANOVA.
Background: Real-time PCR tracks product formation cycle by cycle.

Series [7] relates to β-catenin/Tcf-4 interaction. Put plainly: Co-immunoprecipitation of β-catenin and Myc-tagged Tcf-4 in HCT116 cells. The settings on record: HCT116 transfected with Myc-tagged Tcf-4, LiCl 50 mM, 50 μM, 24 h. Type of series: cell-based, human. The method, then:
Toward this end, we performed a co-immunoprecipitation study in HCT116 cells transfected with Myc-tagged Tcf-4, treated with the two compounds, and immunoprecipitated with Myc antisera.
HCT116 cells were transiently transfected with the Myc-tagged Tcf-4 plasmid and treated with LiCl (50 mM) and 9 (50 μM) or 10 (50 μM) for 24 h. Lysates were immunoprecipitated using Myc-agarose beads and western blot analysis was performed. […] Myc-agarose beads saturated with the Myc-blocking peptide before immunoprecipitation were used as a negative control.
Co-immunoprecipitation assays were performed as previously described.[16],[60] Briefly, 2 × 10^4/cm^2 HCT116 cells were seeded in a 100 mm dish and incubated overnight at 37 °C. Cells were transfected with pcDNA/Myc Tcf-4 (Addgene plasmid #16512; http://n2t.net/addgene:16512; RRID:Addgene_16512)[29] and, after overnight incubation, were starved for 8 h in a medium containing Opti-MEM (#31985070, Thermo Fisher Scientific), FBS 0.5%, pen/strep 1%, NaPyr 1%, NeAA 1%, and then co-treated with 50 mM LiCl and DMSO or 50 μM compound 9 or 50 μM compound […] for 24 h. Cells were collected at the end of the treatments and lysed in a buffer containing 0.5% Triton X-100, 0.5 mM EDTA, and 1 mM DTT. […] Chemioluminescence was detected using WesternBright ECL (#K-12045-D50, Advansta), according to the manufacturer’s protocol.

The subject of series [8] is Myc. Briefly: Myc and β-catenin expression (western blot, qPCR) in LiCl-treated HCT116 cells. In kind it is cell-based, human. The following applies: HCT116, LiCl 50 mM, 24 h. The method, then:
as §7
Figure 7 Top panels. […] Vinculin was used as a loading control. […] Bottom panels. c-Myc mRNA levels were measured by qPCR and normalized to the expression of β-actin mRNA and expressed as fold change relative to the control sample. Results represent the mean ± SD of three independent experiments, each performed in triplicate. **p < 0.01, ***p < 0.001 as determined by ANOVA.
Briefly, total proteins from the cells in each group were subjected to 12% denaturing sodium dodecyl sulfate-polyacrylamide gel electrophoresis (SDS-PAGE). The proteins were then transferred onto a poly(vinylidene fluoride) (PVDF) membrane (Millipore). […] After the membrane was fully washed, it was incubated with secondary antibodies at 37 °C for 45 min goat anti-rabbit IgG H&L (HRP) (ab97051), Abcam, MA. The membrane was washed with Tris-buffered saline/Tween-20 (TBST) 4 times at room temperature for 14 min each time. Next, the samples were exposed and imaged (Sigma-Aldrich Chemical) using the enhanced chemiluminescence (ECL) method (Pierce Biotechnology).
(In western blotting, separated proteins are transferred to a membrane and probed.)

Series [9] deals with β-catenin. Put plainly: Wnt reporter assay (TOP/FOP luciferase) in LiCl-treated HCT116 cells. The following applies: Homo sapiens, HCT-116, read-out: IC50, inhibition of β-catenin (luciferase reporter), LiCl 50 mM, 24 h. In kind it is cell-based. Here is the method: Compounds 9 and 10 were assayed at increasing 10 and 100 nM and 1 μM concentrations in HCT116 cells transfected with luciferase-based vectors and treated with LiCl (50 mM). TOP TK is a well-established Wnt reporter vector containing eight sequences of Tcf/Lef binding site upstream of the timidine kinase (TK) minimal promoter, driving the expression of firefly luciferase.
Figure 6 HCT116 cells were transfected with luciferase-based vectors and treated with LiCl (50 mM) together with increasing concentrations of compound 9 or 10. Cells were harvested 24 h post-treatment and assayed for luciferase activity. Inhibitions were calculated as the luciferase/renilla ratio of the treated samples vs. the luciferase/renilla ratio of the untreated (control) samples. Data are represented as the mean ± SD of three independent experiments, each performed in triplicate. **p < 0.01, ***p < 0.001, n.s = not significant, as determined by analysis of variance (ANOVA).
Luciferase assays were performed as previously described.[58],[59] Briefly, HCT116 cells were transfected with Topflash reporter (M50 Super 8x TOPFlash, containing 8 repeats of TCF/LEF binding sites) or Fopflash reporter (M51 Super 8x FOPFlash, containing the mutated TCF/LEF binding sites) plasmids using the Dreamfect Gold Transfection Reagent (#DG80500, OZ Biosciences). […]
A general note: Reporter assays use an easily measured gene product as a stand-in for the process of interest.

In general, melting point refers to the temperature, or range, at which the solid turns liquid. Broadly, the IC50 is the concentration at which inhibition is half-maximal.

Molecules are shown by their SMILES.

`CCOC(=O)c1ccc(NS(=O)(=O)c2ccc(Br)cc2)cc1` [Compound 3, Ethyl 4-((4-bromophenyl)sulfonamido)benzoate, reference compound]: the “% Luciferase Activity HCT116 (residual)” value in [1] came to 18.75%. Moreover, the “effect on HCC1806 cell growth” value in series [2] was “mild efficacy”. Besides, the “effect on HCC1937 cell growth” value in series [3] is on record as “mild efficacy”. Further, in [4], the “% Luciferase Activity SW480 (residual)” value stood at 21.61%.

`O=S(=O)(Nc1cccc(-c2ccco2)c1)c1ccc(Br)cc1` [Compound 5, 4-Bromo-N-(3-(furan-2-yl)phenyl)benzenesulfonamide] yielded a melting point of 147 to 150 °C. Besides, in [1], the “% Luciferase Activity HCT116 (residual)” value came out at 5.88%. Besides, the “effect on HCC1806 cell growth” value in series [2] is reported as “significant inhibition”. For the same compound, the “effect on HCC1937 cell growth” value in series [3] is reported as “significant inhibition”. Moreover, the “% Luciferase Activity SW480 (residual)” value in series [4] is given as 4.80%. For the same compound, the “effect on MDA-MB-231 cell proliferation” value in series [5] was “significant antiproliferative effects”.

Turning to `O=S(=O)(Nc1cccc(-c2ccccn2)c1)c1ccc(Br)cc1` [Compound 6, 4-Bromo-N-(3-(pyridin-2-yl)phenyl)benzenesulfonamide], the melting point was 175 to 177 °C. In series [1], the “% Luciferase Activity HCT116 (residual)” value is 5.14%. Also, the “effect on HCC1806 cell growth” value in [2] is recorded as “significant inhibition”. Moreover, the “effect on HCC1937 cell growth” value in series [3] is “significant inhibition”. Moreover, the “% Luciferase Activity SW480 (residual)” value in [4] amounted to 28.46%. In addition, the “effect on MDA-MB-231 cell proliferation” value in series [5] is recorded as “significant antiproliferative effects”.

The compound `O=S(=O)(Nc1cccc(-c2ccccn2)c1)c1ccc(Cl)cc1` [Compound 7, 4-Chloro-N-(3-(pyridin-2-yl)phenyl)benzenesulfonamide] returned a melting point of 166 to 169 °C. For the same compound, the “% Luciferase Activity HCT116 (residual)” value in [1] was 0.37%. For the same compound, in [2], the “effect on HCC1806 cell growth” value is “mild inhibitory effect”. Moreover, in [4], the “% Luciferase Activity SW480 (residual)” value was 7.32%.

For the compound `O=S(=O)(Nc1ccc(-c2ccco2)cc1)c1ccc(Br)cc1` [Compound 8, 4-Bromo-N-(4-(furan-2-yl)phenyl)benzenesulfonamide], the melting point fell in the range of 163 to 166 °C. The “% Luciferase Activity HCT116 (residual)” value in [1] was 5.58%. In addition, in series [2], the “effect on HCC1806 cell growth” value is listed as “mild inhibitory effect”. In series [4], the “% Luciferase Activity SW480 (residual)” value amounted to 1.82%.

Compound `O=S(=O)(Nc1ccc(-c2ccccn2)cc1)c1ccc(Cl)cc1` [Compound 10, 4-Chloro-N-(4-(pyridin-2-yl)phenyl)benzenesulfonamide] returned a melting point of 180 to 182 °C. Also, in [6], the “mRNA levels of Wnt-target genes Fgf20 and Sal4” value is on record as “strongly inhibited”. Further, the “% Luciferase Activity HCT116 (residual)” value in [1] was 4.56%. In series [4], the “% Luciferase Activity SW480 (residual)” value came to 1.75%. The “association between β-catenin and Tcf-4 (co-immunoprecipitation)” value in series [7] is listed as “completely abrogated the association”. Further, the “inhibition of Myc expression” value in [8] (10 μM) is on record as “about 2.5 fold”. Further, in [8] (10–50–100 μM), the “protein and mRNA levels of Myc” value is on record as “significant dose-dependent inhibition”; the β-catenin protein levels entry was “reduced only at the highest dose”. Further, the IC50 in [9] is more than 1000 nM.

With `O=C1[C@H](Cc2ccc(O)cc2)N2C(=O)CCN(C(=O)NCc3ccccc3)[C@H]2CN1Cc1cccc2ccccc12` [ICG-001, reference compound], the “reduction of MDA-MB-231 cell viability” value in series [5] (even at the low dose of 0.49 μM) is “most effective compound”.

Source of the values: paper PMC10353061 (ACS Pharmacology & Translational Science, 2023).
